Four compounds from patent publication EP0326331B1, “Substituted quinolines and cinnolines” (Dow AgroSciences LLC, priority 1988, dated 1989) can be followed below.

What all share (format): in vivo
Assay [1] has as its system Twospotted spider mites (Tetranychus urticae Koch). Put plainly: Mite/insect screen, SM. Particulars: Tetranychus urticae, percent mortality; SAW, SM & MA RATE 200 PPM; read-out: SM RESULTS %. Put shortly: (§1)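 Activity is expressed as percent mortality at the indicated spray concentrations. Plants are sprayed to runoff on upper and lower leaf surfaces with aqueous dilutions of an acetone/alcohol emulsifiable formulation, then dried for one hour.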

The test system of assay [2] is Venturia inaequalis (apple scab). Put plainly: Test 1 greenhouse foliar spray screen, apple scab on apple seedling. Particulars: disease control rating, foliar spray on apple seedling, 400 ppm (+++ at 100 ppm).
In assay [3] the test system is Erysiphe graminis tritici (powdery mildew). Nature of the assay: Test 1 greenhouse foliar spray screen, powdery mildew on wheat. The following applies: disease control rating, foliar spray on wheat, 400 ppm (+++ at 100 ppm).
Assay [4] deals with Puccinia recondita tritici (leaf rust). Put plainly: Test 1 greenhouse foliar spray screen, leaf rust on wheat. The following applies: disease control rating, foliar spray on wheat, 400 ppm (+++ at 100 ppm).
Assay [5] concerns Cercospora beticola (leaf spot). Put plainly: Test 1 greenhouse foliar spray screen, leaf spot on sugar beet. The following applies: disease control rating, foliar spray on sugar beet, 400 ppm (+++ at 100 ppm).
The subject of assay [6] is melon aphids (Aphis gossypii Glover). Put plainly: Mite/insect screen, MA. Particulars: Aphis gossypii, percent mortality; SAW, SM & MA RATE 200 PPM; read-out: MA RESULTS %. Put shortly:
as §1

The test system of assay [7] is Pseudoperonospora cubensis (downy mildew). Nature of the assay: Test 1 greenhouse foliar spray screen, downy mildew on squash. Particulars: disease control rating, foliar spray on squash, 400 ppm (+++ at 100 ppm).
The test system of assay [8] is Septoria tritici (leaf blotch). Put plainly: Test 1 greenhouse foliar spray screen, leaf blotch on wheat. Particulars: disease control rating, foliar spray on wheat, 400 ppm (+++ at 100 ppm).
For assay [9], the system named is corn rootworm. Nature of the assay: Mite/insect screen, CRW. The following applies: percent mortality; CRW RATE 12.00 PPM; read-out: CRW RESULTS %. In outline:
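Each compound, taken up in an emulsifier-containing acetone/alcohol mixture and diluted in water to the stated concentrations, was assessed for percent kill following standard exposure times.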

Assay [10] deals with Botrytis cinerea (gray mold). Nature of the assay: Test 1 greenhouse foliar spray screen, gray mold on grape berries. The following applies: disease control rating, spray on grape berries, 400 ppm (+++ at 100 ppm).
Assay [11] deals with southern armyworm (Spodopetra eridania Cramer). Nature of the assay: Mite/insect screen, SAW. The following applies: Spodoptera eridania, percent mortality; SAW, SM & MA RATE 200 PPM; read-out: SAW RESULTS %. In outline: as §1
The test system of assay [12] is Pyricularia oryzae (rice blast). Nature of the assay: whole plant or invertebrate. Particulars: disease control rating, foliar spray on rice, 400 ppm (+++ at 100 ppm).

On to `CC(CNc1ccnc2c(F)cccc12)(c1ccccc1)c1ccccc1` [Example 80, N-(2,2-diphenylpropyl)-8-fluoro-4-quinolinamine], for which the mortality at 200 ppm in [1], in assay [6] and in assay [11] was 0% throughout. The “APPL SCAB” value in [2] was “- (0-19% control at 400 ppm)”. Further, the “POWD MDEW” value in [3] was “+ (20-89% control at 400 ppm)”. For the same compound, the “LEAF RUST” value in assay [4] was “++ (90-100% control at 400 ppm)”. In assay [5], the “LEAF SPOT” value is on record as “+ (20-89% control at 400 ppm)”. Besides, the “DOWN MDEW” value in assay [7] is on record as “+++ (90-100% control at 100 ppm)”. The “LEAF BLOT” value in assay [8] is recorded as “- (0-19% control at 400 ppm)”. Further, the mortality at 12 ppm in assay [9] is 0%. Further, in assay [10], the “GRAY MOLD” value was “- (0-19% control at 400 ppm)”. In [12], the “RICE BLAST” value is given as “++ (90-100% control at 400 ppm)”.

As for `CCC(CNc1ccnc2c(F)cccc12)c1ccccc1` (stereo not drawn) [Example 81, 8-fluoro-N-(2-phenylbutyl)-4-quinolinamine], the mortality at 200 ppm in assay [1], in [6] and in [11] was 0% each time. Further, in assay [2], the “APPL SCAB” value was “- (0-19% control at 400 ppm)”. In addition, the “POWD MDEW” value in assay [3] is reported as “+ (20-89% control at 400 ppm)”. Also, in assay [4], the “LEAF RUST” value was “++ (90-100% control at 400 ppm)”. In assay [5], the “LEAF SPOT” value was “+ (20-89% control at 400 ppm)”. For the same compound, the “DOWN MDEW” value in assay [7] is “+++ (90-100% control at 100 ppm)”. For the same compound, the “LEAF BLOT” value in assay [8] is listed as “- (0-19% control at 400 ppm)”. Besides, the mortality at 12 ppm in assay [9] came to 0%. Moreover, in assay [10], the “GRAY MOLD” value is listed as “- (0-19% control at 400 ppm)”. Further, the “RICE BLAST” value in assay [12] was “++ (90-100% control at 400 ppm)”.

For the compound `Fc1cccc2c(NCCc3ccccc3Cl)ccnc12` [Example 82, N-[2-(2-chlorophenyl)ethyl]-8-fluoro-4-quinolinamine], the mortality at 200 ppm in assay [1], in [6] and in assay [11] was 0% each time. Moreover, the “APPL SCAB” value in assay [2] is “- (0-19% control at 400 ppm)”. Moreover, in [3], the “POWD MDEW” value is given as “+ (20-89% control at 400 ppm)”. Moreover, in [4], the “LEAF RUST” value was “+++ (90-100% control at 100 ppm)”. For the same compound, the “LEAF SPOT” value in [5] is given as “+ (20-89% control at 400 ppm)”. Besides, the “DOWN MDEW” value in assay [7] was “+++ (90-100% control at 100 ppm)”. In addition, in assay [8], the “LEAF BLOT” value was “+++ (90-100% control at 100 ppm)”. The mortality at 12 ppm in [9] stood at 0%. Also, in [10], the “GRAY MOLD” value is “- (0-19% control at 400 ppm)”. The “RICE BLAST” value in [12] is given as “+++ (90-100% control at 100 ppm)”.

For the compound `Fc1cccc2c(NCCc3ccc(C(F)(F)F)cc3)ccnc12` [Example 83, 8-fluoro-N-[2-[4-(trifluoromethyl)phenyl]ethyl]-4-quinolinamine], the mortality at 200 ppm in assay [1], in assay [6] and in assay [11] was 0% each time. In addition, the “APPL SCAB” value in assay [2] is given as “- (0-19% control at 400 ppm)”. In addition, the “POWD MDEW” value in assay [3] is given as “+ (20-89% control at 400 ppm)”. Also, in assay [4], the “LEAF RUST” value is recorded as “+++ (90-100% control at 100 ppm)”. Besides, the “LEAF SPOT” value in assay [5] is recorded as “+ (20-89% control at 400 ppm)”. Moreover, in assay [7], the “DOWN MDEW” value was “++ (90-100% control at 400 ppm)”. Besides, the “LEAF BLOT” value in [8] is given as “- (0-19% control at 400 ppm)”. Further, in assay [9], the mortality at 12 ppm was 0%. Besides, in assay [10], the “GRAY MOLD” value was “+++ (90-100% control at 100 ppm)”. In assay [12], the “RICE BLAST” value is reported as “++ (90-100% control at 400 ppm)”.
